pEC50: −log10 of the molar value.
Columns and labels:
[1] = target: T1, WT STING (Homo sapiens, UniProt Q86WV6, H232R); test: 293T WT STING standard reporter assay; assay type: cell-based; settings: 293T wtSTING-FL cells; 7 hours with compound, no digitonin; ISRE firefly luciferase reporter
Description: (§1) Two complementary oligonucleotides of the sequence […] […] […] […] […] The oligonucleotides were mixed in equal molar amounts, hybridized, and cleaved by restriction endonucleases HindIII (cat. #. R0104S, NEB, Ipswich, USA) and BglII (cat. # R0144S, NEB, Ipswich, USA). Ultimately, they were ligated into plasmid pGL4.27 (cat. # E6651, Promega, Madison, USA) linearized with the same enzymes. As result the sequence with four ISRE sites was placed upstream of the minimum promoter of firefly luciferase reporter gene.
(§2) After 5 minutes incubation at room temperature (RT), 250 µL of the mixture was added dropwise to the cells in one well. Cells were incubated 36 hours at 37° C. with 5% CO2, and then detached with 0.05% Trypsin and 0.22 g/L EDTA (both cat. # L0941, Biowest, Riverside, USA).
(§3) Transfected cells were seeded onto poly-D-lysine coated six well plates at density 50,000 cells per 1 cm^2 in DMEM medium with high glucose containing 10% heat inactivated FBS, 30 µg/mL blasticidin (cat. # ant-bl-05, InvivoGen, San Diego, USA), 0.06 mg/ml Penicillin G and 0.1 mg/ml Streptomycin Sulfate (both cat. #. L0018, Biowest, Riverside, USA). The medium was replenished every 3 - 4 days until visible colonies of cells resistant to blasticidin were formed.
(§4) Blasticidin resistant cells stably expressing WT STING were further transfected with […] plasmid following the same procedure as described above. […] Homogeneous culture of stably double transfected cells was prepared by limiting dilution of cells in 96 well plates and wells with cells were selected that originated from a single cell.
The medium was removed next day and three-fold serial dilutions of compounds in 100 µl medium were added to the cells. The plates with cells were incubated for 7 hours at 37° C. with 5% CO2. After 50 µl of the medium was removed, 30 µl of ONE-Glo^Tm Luciferase Assay System reagent (cat. # E6120, Promega, Madison, USA) was added to each well and luminescence was read on Synergy H1 (Biotek, Winooski, USA).
Target sequence in this assay (Q86WV6 whole entry H232R): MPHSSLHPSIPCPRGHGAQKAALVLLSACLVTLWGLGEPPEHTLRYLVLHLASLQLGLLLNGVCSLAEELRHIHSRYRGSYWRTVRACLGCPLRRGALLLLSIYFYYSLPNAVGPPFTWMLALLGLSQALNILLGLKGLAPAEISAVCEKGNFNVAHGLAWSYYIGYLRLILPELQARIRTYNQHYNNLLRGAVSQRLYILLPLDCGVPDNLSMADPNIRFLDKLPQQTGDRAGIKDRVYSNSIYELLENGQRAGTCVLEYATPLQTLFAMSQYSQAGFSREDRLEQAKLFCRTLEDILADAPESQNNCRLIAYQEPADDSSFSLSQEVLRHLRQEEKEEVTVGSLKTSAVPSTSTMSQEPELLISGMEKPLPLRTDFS

[2] = target: T1, WT STING; test: Digitonin assay using 293T wtSTING-FL reporter cells; assay type: cell-based; settings: 293T wtSTING-FL cells; 30 minutes in Digitonin buffer, then 5 hours; ISRE firefly luciferase reporter
Description: as §1, §2, §3, §4
Target sequence in this assay (Q86WV6 whole entry H232R): as above
The medium was removed next day and three fold serial dilutions of compounds in Digitonin buffer containing 50 mmol.l^-1 HEPES (cat. # H3375, Sigma Aldrich, Czech Republic) pH 7.0, 100 mmol.1^-1 KCl, 3 mmol.l^-1 MgCl2, 0.1 mmol.l^-1 DTT (cat. # D0632, Sigma Aldrich, Czech Republic), 85 mmol.1^-1 Sucrose (cat. # S7903, Sigma Aldrich, Czech Republic), 0.2% BSA (cat. # A2153, Sigma Aldrich, Czech Republic), 1 mmol.l^-1 ATP (cat. # A1852, Sigma Aldrich, Czech Republic), 0.1 mmol.1^-1 GTP (cat. # G8877, Sigma Aldrich, Czech Republic), and 10 µg/mL Digitonin A (cat. # D141, Sigma Aldrich, Czech Republic) were added to the cells. The buffer was removed after 30 minutes incubation at 37° C. with 5% CO2, the cells were washed once with 100 µl of cultivation medium, and 100 µl of medium was added to each well. The plates with cells were incubated for 5 hours at 37° C. with 5% CO2, 50µl of the medium was removed and 30 µl of ONE-Glo^Tm Luciferase Assay System reagent (cat. # E6120, Promega, Madison, USA) was added to each well. Luminescence was read on Synergy H1 (Biotek, Winooski, USA).

[3] = target: T1, WT STING; test: Differential Scanning Fluorimetry with WT STING; assay type: binding; design: 8xHis (N, cleaved yes); SUMO (N, cleaved yes); made in house; host or cells: E. coli Rosetta-gami B (DE3); settings: thermal shift vs apoprotein, 150 µM CDN, truncated human WT STING 0.1 mg/ml; for ΔTm at 150 µM: read-out: DSF ΔTm WT STING
Description: (§5) Purified PCR products were cleaved with restriction enzymes BamHI (cat. # R0136S, NEB, Ipswich, USA) and NotI (cat. # R0189S, NEB, Ipswich, USA) and cloned into the pSUMO vector linearized with the identical enzymes.
(§6) Bacterial pellets were re-suspended in ice-cold lysis buffer containing 50 mmol.1^-1 TrisCl (cat. # T1503, Sigma Aldrich, Czech Republic) pH 8.0, 300 mmol.1^-1 NaCl, 3 mmol.1^-1 β-mercaptoethanol (cat. # M6250, Sigma Aldrich, Czech Republic), 10% glycerol (cat. # G5516, Sigma Aldrich, Czech Republic) and 20 mmol.1^-1 imidazole (cat. # I5513, Sigma Aldrich, Czech Republic) using Dounce homogenizer. DNase I (cat. # D5025, Sigma Aldrich, Czech Republic) and RNase A (cat. # R6513, Sigma Aldrich, Czech Republic) were added (final concentration 50 µg/ml) together with MgCl2 (final concentration 5 mmol.l^-1) to the homogenate and bacteria were lysed using French Press G-M™ High-Pressure Cell Press Homogenizer (1500 psi, 3 cycles). […] The resin was poured into a chromatography column, washed with 50 ml buffer A (50 mmol.1^-1 TrisCl (pH 8.0), 800 mmol.1^-1 NaCl, 3 mmol.1^-1 β-mercaptol; 10% glycerol; 20 mmol.1^-1 imidazole) and 8-His-SUMO tagged STING proteins were eluted with 15 ml buffer A containing 300 mmol.1^-1 imidazole. […] Proteins were concentrated with Amicon® Ultra-15 10 K device (cat. # UFC901008, Merck Millipore, Billerica, USA) and flash frozen in liquid N2.
(§7) 20 µL solutions of the reaction mixtures were pipetted in triplicates into 96 well optical reaction plates and thermal denaturation of samples were performed on real time PCR cycler (LightCycler® 480 Instrument II - Roche, Basel, Switzerland). The first derivative of the thermal denaturation curves was performed to calculate denaturing temperatures of STING - CDN complexes and STING apoproteins. The thermal shift for each CDN was calculated by subtracting the average denaturing temperature of STING apoprotein from the average denaturing temperature of STING CDN complex.
Target sequence in this assay (Q86WV6 140-343 H232R): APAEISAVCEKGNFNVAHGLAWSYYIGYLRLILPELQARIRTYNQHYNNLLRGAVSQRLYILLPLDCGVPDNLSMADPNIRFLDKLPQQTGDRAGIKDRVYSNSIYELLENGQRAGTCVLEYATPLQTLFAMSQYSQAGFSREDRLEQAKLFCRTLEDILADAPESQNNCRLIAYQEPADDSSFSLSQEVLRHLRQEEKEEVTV

[4] = target: T2, AQ STING (G230A-R293Q) (Homo sapiens, UniProt Q86WV6, G230A/H232R/R293Q); test: Differential Scanning Fluorimetry with AQ STING; assay type: binding; settings: thermal shift vs apoprotein, 150 µM CDN, truncated human AQ STING 0.1 mg/ml; for ΔTm at 150 µM: read-out: DSF ΔTm AQ STING
T2 construct: 8xHis (N, cleaved yes); SUMO (N, cleaved yes); made in house; host or cells: E. coli Rosetta-gami B (DE3)
Description: as §5, §6, §7

T2 sequence (Q86WV6 140-343 G230A/H232R/R293Q): as the sequence (Q86WV6 140-343 H232R) above, with G91A, R154Q counted along it

| Compound | pEC50 [1] | pEC50 [2] | DSF ΔTm WT STING [3] [°C] | DSF ΔTm AQ STING [4] [°C] | ΔTm at 150 µM [3] [°C] | ΔTm at 150 µM [4] [°C] |
| --- | --- | --- | --- | --- | --- | --- |
| Nc1nc2c(ncn2[C@@H]2O[C@@H]3COP(=O)(O)O[C@@H]4[C@H](O)[C@@H](COP(=O)(O)O[C@@H]2[C@@H]3O)O[C@H]4n2cnc3c(N)ncnc32)c(=O)[nH]1 [2′2′-cGAMP, reference compound] | 4.99 | 7.52 | 11.5 | 19.4 | – | – |
| Nc1nc2c(ncn2[C@@H]2O[C@@H]3/C=C/P(=O)(O)O[C@H]4[C@@H](F)[C@H](n5cnc6c(N)ncnc65)O[C@@H]4COP(=O)(O)O[C@H]3[C@H]2F)c(=O)[nH]1 [Compound 54, (1R,6R,8R,9R,10R,13E,15R,17R,18R)-17-(2-amino-6-oxo-6,9-dihydro-1H-purin-9-yl)-8-(6-amino-9H-purin-9-yl)-9,18-difluoro-3,12-dihydroxy-2,4,7,11,16-pentaoxa-3λ^5,12λ^5-diphosphatricycl [13.3.0.0^6,^10]octadec-13-ene-3,12-dione] | – | 7.70 | – | – | 9.2 | 15 |
| Nc1nc2c(ncn2[C@@H]2O[C@@H]3/C=C/P(=O)(O)O[C@H]4C[C@H](n5cnc6c(N)ncnc65)O[C@@H]4COP(=O)(O)O[C@H]3[C@H]2O)c(=O)[nH]1 [Compound 55, (1S,6R,8R,10S,13E,15R,17R,18R)-17-(2-amino-6-oxo-6,9-dihydro-1H-purin-9-yl)-8-(6-amino-9H-purin-9-yl)-3,12,18-trihydroxy-2,4,7,11,16-pentaoxa-3λ^5,12λ^5-diphosphatricyclo[13.3.0.0^6,^10]octadec-13-ene-3,12-dione] | – | 6.11 | – | – | 1.9 | 8.6 |
| Nc1nc2c(ncn2[C@@H]2O[C@@H]3/C=C/P(=O)(O)O[C@H]4[C@@H](F)[C@H](n5cnc6c(=O)[nH]c(N)nc65)O[C@@H]4COP(=O)(O)O[C@H]3[C@H]2F)c(=O)[nH]1 [Compound 56, (1R,6R,8R,9R,10R,13E,15R,17R,18R)-8,17-bis(2-amino-6-oxo-6,9-dihydro-1H-purin-9-yl)-9,18-difluoro-3,12-dihydroxy-2,4,7,11,16-pentaoxa-3λ^5,12λ^5-diphosphatricyclo[13.3.0.0^6,^10]octadec-13-ene-X3.12-dione] | – | 6.30 | – | – | 4.1 | 10.6 |
| Nc1nc2c(ncn2[C@H]2C[C@@H]3OP(=O)(O)/C=C/[C@H]4O[C@@H](n5cnc6c(N)ncnc65)[C@H](F)[C@@H]4OP(=O)(O)OC[C@H]3O2)c(=O)[nH]1 [Compound 57, (1R,6R,8R,10S,13E,15R,17R,18R)-8-(2-amino-6-oxo-6,9-dihydro-1H-purin-9-yl)-17-(6-amino-9H-purin-9-yl)-18-fluoro-3,12-dihydroxy-2,4,7,11,16-pentaoxa-3λ^5,12λ^5-diphosphatricyclo[13.3.0.0^6,^10]octadec-13-ene-3,12-dione] | – | 6.92 | – | – | 6.1 | 11.3 |
| Nc1nc(N)c2ncn([C@@H]3O[C@@H]4COP(=O)(O)O[C@H]5[C@@H](O)[C@H](n6cnc7c(=O)[nH]c(N)nc76)O[C@@H]5/C=C\P(=O)(O)O[C@H]4[C@H]3F)c2n1 [Compound 65, (1S,6R,8R,9R,10R,13Z,15R,17R,18R)-17-(2-amino-6-oxo-6,9-dihydro-1H-purin-9-yl)-8-(2,6-diamino-9H-purin-9-yl)-9-fluoro-3,12,18-trihydroxy-2,4,7,11,16-pentaoxa-3λ^5,12λ^5-diphosphatricyclo[13.3.0.0^6,^10]octadec-13-ene-3,12-dione] | – | 5.30 | – | – | 3.1 | 8 |
| Nc1nc2c(ncn2[C@@H]2O[C@@H]3/C=C\P(=O)(O)O[C@H]4C[C@H](n5cnc6c(N)nc(F)nc65)O[C@@H]4COP(=O)(O)O[C@H]3[C@H]2O)c(=O)[nH]1 [Compound 66, (1S,6R,8R,10S,13Z,15R,17R,18R)-8-(6-amino-2-fluoro-9H-purin-9-yl)-17-(2-amino-6-oxo-6,9-dihydro-1H-purin-9-yl)-3,12,18-trihydroxy-2,4,7,11,16-pentaoxa-3λ^5,12λ^5-diphosphatricyclo[13.3.0.0^6,^10]octadec-13-ene-3,12-dione] | – | 4.82 | – | – | 0.5 | 1.7 |
| Nc1nc2c(ncn2[C@@H]2O[C@@H]3/C=C\P(=O)(O)O[C@H]4[C@@H](N)[C@H](n5cnc6c(N)ncnc65)O[C@@H]4COP(=O)(O)O[C@H]3[C@H]2O)c(=O)[nH]1 [Compound 67, (1S,6R,8R,9R,10S,13Z,15R,17R,18R)-9-amino-17-(2-amino-6-oxo-6,9-dihydro-1H-purin-9-yl)-8-(6-amino-9H-purin-9-yl)-3,12,18-trihydroxy-2,4,7,11,16-pentaoxa-3λ^5,12λ^5-diphosphatricyclo[13.3.0.0^6,^10]octadec-13-ene-3,12-dione] | – | 5.19 | – | – | 0.3 | 2.9 |

Reference: patent US20230303613A1, “3′3′ CYCLIC DINUCLEOTIDES WITH AN ALKENYLENE” (Institute of Organic Chemistry and Biochemistry AS CR, v.v.i, priority 2020, published 2023)
